Data taken from paper PMC6968521, “Novel CDKs inhibitors for the treatment of solid tumour by simultaneously regulating the cell cycle and transcription control” (Journal of Enzyme Inhibition and Medicinal Chemistry, 2020).

What was measured:
T-47D cells = assay: CCK-8 cytotoxicity assay, T-47D; assay type: cell-based; settings: Homo sapiens, T47D; CCK-8, 72 h incubation, three independent experiments; read-out: In vitro cell growth inhibition IC50, T-47D
Protocol: (§1) All the human cancer cell lines were obtained from ATCC. Cells were cultured in RPMI-1640 (BioInd) medium according to the instructions from ATCC, with the medium containing 10% FBS (BioInd), 1% antibiotics (penicillin and streptomycin) at 37 °C in an atmosphere of 5% CO2.
(§2) Cytotoxicity assay were conducted as described previously using a Cell Counting Kit-8 (CCK-8) assay (#CK04, Dojindo, Kumamoto, Japan)[37].

H460 cells = assay: CCK-8 cytotoxicity assay, H460; assay type: cell-based; settings: Homo sapiens, NCI-H460; CCK-8, 72 h incubation, three independent experiments; read-out: In vitro cell growth inhibition IC50, H460
Protocol: as §1, §2

MCF7 cells [1] = assay: Annexin V-FITC/PI apoptosis assay, MCF7; assay type: cell-based, human; settings: 0.1 to 0.5 µM, 48 h incubation
Protocol: (§3) Cells at a density of 3 × 10^5 cells/mL were seeded in six-well plates and treated with compounds at different concentrations for 48 h. The cells were then harvested and washed twice with cold PBS. Then the cells were subjected to an Annexin V/PI Apoptosis Detection kit (BD Biosciences) for staining according to manufacture’s instructions, and finally analysed by flow cytometry (Modfit, BD).

4T1 breast cancer cells = assay: CCK-8 cytotoxicity assay, 4T1; assay type: cell-based; settings: CCK-8, 72 h incubation, three independent experiments; read-out: In vitro cell growth inhibition IC50, 4T1
Protocol: as §1, §2

MCF7 cells [2] = assay: CCK-8 cytotoxicity assay, MCF7; assay type: cell-based; settings: Homo sapiens, CCK-8, 72 h incubation, three independent experiments, read-out: In vitro cell growth inhibition IC50, MCF7
Protocol: as §1, §2

A549 cells [3] = assay: CCK-8 cytotoxicity assay, A549; assay type: cell-based; settings: Homo sapiens, CCK-8, 72 h incubation, three independent experiments, read-out: In vitro cell growth inhibition IC50, A549
Protocol: as §1, §2

H1299 cells = assay: CCK-8 cytotoxicity assay, H1299; assay type: cell-based; settings: Homo sapiens, NCI-H1299; CCK-8, 72 h incubation, three independent experiments; read-out: In vitro cell growth inhibition IC50, H1299
Protocol: as §1, §2

A549 cells [4] = assay: Annexin V-FITC/PI apoptosis assay, A549; assay type: cell-based, human; settings: 48 h incubation, compared to DMSO or ribociclib
Protocol: as §3

CDK9 = target: T1, CDK9 (Homo sapiens, UniProt P50750); assay: Kinase inhibition assay (KinaseProfiler, Eurofins), CDK9; assay type: biochemical
T1 construct: purchased Eurofins (KinaseProfiler service)
T1 sequence (P50750 whole entry): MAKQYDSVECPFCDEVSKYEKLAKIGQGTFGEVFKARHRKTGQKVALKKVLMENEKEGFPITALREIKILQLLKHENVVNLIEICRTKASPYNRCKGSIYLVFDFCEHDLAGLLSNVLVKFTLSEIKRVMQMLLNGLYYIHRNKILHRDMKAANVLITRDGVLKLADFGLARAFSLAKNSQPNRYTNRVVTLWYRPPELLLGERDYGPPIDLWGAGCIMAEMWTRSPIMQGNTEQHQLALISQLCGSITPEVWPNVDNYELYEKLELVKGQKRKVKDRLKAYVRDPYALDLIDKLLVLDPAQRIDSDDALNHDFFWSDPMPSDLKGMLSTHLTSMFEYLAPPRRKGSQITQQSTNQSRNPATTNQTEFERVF
T1 sequence (O60563 whole entry partner): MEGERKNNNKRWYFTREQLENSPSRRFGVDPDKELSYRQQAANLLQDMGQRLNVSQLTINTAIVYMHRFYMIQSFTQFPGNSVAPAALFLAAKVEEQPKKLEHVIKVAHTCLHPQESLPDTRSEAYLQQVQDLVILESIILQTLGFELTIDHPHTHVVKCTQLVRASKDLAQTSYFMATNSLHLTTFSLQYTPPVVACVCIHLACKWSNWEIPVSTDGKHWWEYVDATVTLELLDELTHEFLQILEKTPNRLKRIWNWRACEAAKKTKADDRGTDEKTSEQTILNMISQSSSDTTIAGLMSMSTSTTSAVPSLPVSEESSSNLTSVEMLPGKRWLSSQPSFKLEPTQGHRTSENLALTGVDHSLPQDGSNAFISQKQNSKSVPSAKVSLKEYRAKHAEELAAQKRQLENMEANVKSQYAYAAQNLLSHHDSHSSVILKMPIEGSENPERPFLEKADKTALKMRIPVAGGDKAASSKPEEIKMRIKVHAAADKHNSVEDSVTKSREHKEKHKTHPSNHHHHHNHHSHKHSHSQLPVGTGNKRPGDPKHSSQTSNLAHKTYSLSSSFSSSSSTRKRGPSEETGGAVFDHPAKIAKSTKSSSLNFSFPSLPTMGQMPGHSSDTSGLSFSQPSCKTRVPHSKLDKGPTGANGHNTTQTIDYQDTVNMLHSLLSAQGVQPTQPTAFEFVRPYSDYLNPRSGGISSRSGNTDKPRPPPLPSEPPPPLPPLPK
Protocol: (§4) Kinase inhibition profiles were determined using KinaseProfiler services provided by Eurofins, and ATP concentrations used the Km of corresponding kinases.

MCF7 cells [5] = assay: Cell cycle assay (propidium iodide, flow cytometry), MCF7; assay type: cell-based, human; settings: 24 h treatment, vs DMSO
Protocol: (§5) Cells were harvested and washed with phosphate buffered saline (PBS) for three times and then fixed with ice cold 75% ethanol overnight. The fixed cells were then washed with PBS and stained with propidium iodide ([…]) in the presence of RNase A (0.5 mg) for 30 min at 37 °C. The stained cells were then subjected to flow cytometry (Modfit, BD) for cell cycle analysis.

A549 cells [6] = assay: Cell cycle assay (propidium iodide, flow cytometry), A549; assay type: cell-based, human; settings: 24 h treatment, vs DMSO
Protocol: as §5

[7] = tested on: RNAPII CTD Ser2 and Ser5 phosphorylation in A549 cells; assay: Western blotting of RNAPII CTD phosphorylation, A549; assay type: cell-based, human; settings: 24 h, vs DMSO
Protocol: (§6) Protein extraction and western blotting methods were performed as described previously. The antibodies used in this study including anti-β-actin (Santa Cruz; sc-47778), anti-p53 (CST; #9282), anti-phospho-p53^Ser15 (CST; #9284), anti-Bax (CST; #2772), anti-Bcl-2 (BD; #51-6511GR), anti-Rb (CST; #9309), anti-phospho-Rb^Ser807/811 (CST; #8516), anti-phospho-Rb^Ser780 (CST; #9307), anti-RNA polymerase II CTD (Abcam; ab817), anti-RNA polymerase II CTD^phospho S5 (Abcam; ab5131), anti-RNA polymerase II CTD^phospho S2 (Abcam; ab5095).

CDK6 = target: T2, CDK6 (Homo sapiens, UniProt Q00534); assay: Kinase inhibition assay (KinaseProfiler, Eurofins), CDK6; assay type: biochemical
T2 construct: purchased Eurofins (KinaseProfiler service)
T2 sequence (Q00534 whole entry): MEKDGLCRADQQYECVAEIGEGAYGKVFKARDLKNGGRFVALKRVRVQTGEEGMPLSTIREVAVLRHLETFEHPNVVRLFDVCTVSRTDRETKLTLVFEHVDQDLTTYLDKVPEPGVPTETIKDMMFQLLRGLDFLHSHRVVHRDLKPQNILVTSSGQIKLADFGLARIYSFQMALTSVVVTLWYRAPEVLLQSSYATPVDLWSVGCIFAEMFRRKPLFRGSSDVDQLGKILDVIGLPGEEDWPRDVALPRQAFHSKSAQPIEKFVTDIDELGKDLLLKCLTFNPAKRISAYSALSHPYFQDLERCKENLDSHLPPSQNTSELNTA
T2 sequence (P30281 whole entry partner): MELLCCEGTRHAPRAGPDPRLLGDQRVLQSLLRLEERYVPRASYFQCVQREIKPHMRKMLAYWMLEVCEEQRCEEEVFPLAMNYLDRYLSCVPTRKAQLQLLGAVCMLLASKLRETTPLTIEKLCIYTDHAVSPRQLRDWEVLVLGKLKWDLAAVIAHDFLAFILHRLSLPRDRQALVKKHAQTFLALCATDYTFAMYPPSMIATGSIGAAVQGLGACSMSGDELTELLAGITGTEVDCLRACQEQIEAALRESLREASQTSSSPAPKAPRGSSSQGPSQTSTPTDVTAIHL
Protocol: as §4

4T1 homograft tumours = assay: In vivo 4T1 homograft tumour model; settings: for Tumour inhibition rate: oral gavage daily for 18 days, 4T1 homograft in BALB/c mice
Protocol: 4T1 breast cancer cells (5 × 10^4) were injected in the mammary fat pads of 6 − 8 weeks old female BALB/c mice. Once the tumours grew to a volume of approximately 100–150 mm^3, they were placed into five treatment groups (n = 3, with a total tumour number of 15). The mice were treated daily for 18 days via oral gavage. Body weights and tumour size were determined every other day. Tumour measurements were found using a digital vernier calliper, and the volumes were determined using the following calculation: (short^2) × long × 0.5. Experiments were performed under an approved IACUC protocol according to federal and institutional guidelines and regulations. Inhibition rate of tumour growth was calculated using the following formula: 100 × {1 − [(tumour volumefinal − tumour volumeinitial) for X22-treated group]/[(tumour volumefinal − tumour volumeinitial) for the vehicle-treated group]}.

CDK4 = target: T3, CDK4 (Homo sapiens, UniProt P11802); assay: Kinase inhibition assay (KinaseProfiler, Eurofins), CDK4; assay type: biochemical
T3 construct: purchased Eurofins (KinaseProfiler service)
T3 sequence (P11802 whole entry): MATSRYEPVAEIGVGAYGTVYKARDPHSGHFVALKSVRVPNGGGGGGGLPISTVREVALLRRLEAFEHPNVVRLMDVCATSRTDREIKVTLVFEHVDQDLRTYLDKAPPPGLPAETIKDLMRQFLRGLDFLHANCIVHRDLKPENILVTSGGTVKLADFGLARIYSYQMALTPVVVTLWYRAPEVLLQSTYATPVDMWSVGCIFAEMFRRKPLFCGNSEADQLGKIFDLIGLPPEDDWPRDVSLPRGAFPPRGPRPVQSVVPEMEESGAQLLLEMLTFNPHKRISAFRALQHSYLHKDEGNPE
T3 sequence (P30281 whole entry partner): as the sequence (P30281 whole entry partner) above
Protocol: as §4

[8] = tested on: RNAPII CTD Ser2 and Ser5 phosphorylation in MCF7 cells; assay: Western blotting of RNAPII CTD phosphorylation, MCF7; assay type: cell-based, human; settings: 24 h, vs DMSO
Protocol: as §6

[9] = ATP at Km, mean of two independent experiments

`CN(C)C(=O)c1cc2cnc(Nc3ccc(CS(=O)(=O)CCCCCCN=C=S)cc3)nc2n1C1CCCC1` [X22] was tested, and the IC50 (T-47D cells) was 110 ± 10 nM, the IC50 (H460 cells) was 1800 ± 340 nM and the “Increase of the percentages of apoptotic cells compared to DMSO-treated cells” value (MCF7 cells [1]) was 2.2 to 3.5 fold change. For the same molecule, the IC50 (4T1 breast cancer cells) was 83 nM, the IC50 (MCF7 cells [2]) was 110 ± 70 nM and the IC50 (A549 cells [3]) was 210 ± 70 nM. The IC50 (H1299 cells) was 570 ± 70 nM, the “Proportion of apoptotic cells (Q2 late apoptotic and Q3 early apoptotic)” value (A549 cells [4]) was “dose-dependently increased” and the inhibition at 1 µM (CDK9) was 98%. The IC50 (CDK9; [9]) was 10 ± 1.3 nM, the “Effect on the cell cycle” value (MCF7 cells [5]) was “blocked the cell cycle at G2/M phase” and the “Effect on the cell cycle” value (A549 cells [6]) was “blocked the cell cycle at G2/M phase”. The “Concentration that effectively inhibited the phosphorylation of Ser2 and Ser5 of RNAPII CTD” value [7] was 1 µM, the inhibition at 1 µM (CDK6) was 91% and the IC50 (CDK6; [9]) was 126 ± 20.6 nM. It also gave a Tumour inhibition rate (4T1 homograft tumours; 15 mg/kg) of 51.8 ± 17.5%, a Tumour inhibition rate (4T1 homograft tumours; 30 mg/kg) of 65.4 ± 11.7% and a Tumour inhibition rate (4T1 homograft tumours; 60 mg/kg) of 70.3 ± 4.4%. The “Signs of toxicity (preliminary toxicity evaluation)” value (4T1 homograft tumours; 15, 30 or 60 mg/kg oral daily, 18 days, BALB/c mice) was “No obvious signs of toxicity”, the “Average tumour weight of excised tumours” value (4T1 homograft tumours; day 18, compared with other groups) was “obviously lighter” and the Mouse body weight (4T1 homograft tumours; monitored over 18 days, among the five groups of mice) was “no significant difference”. For the same molecule, the inhibition at 1 µM (CDK4) was 97 ± 0.4%, the IC50 (CDK4; [9]) was 30 ± 3.9 nM and the “Concentration that effectively inhibited the phosphorylation of Ser2 and Ser5 of RNAPII CTD” value [8] was 0.5 µM.
